≈ marks a conversion by molar mass, not a printed value. Where “and” joins values, the source holds several entries; their conditions need not be identical. Equal values may be shown once.
Settings: buffer; pH 7.4; 6.0 h; 150.0 µM

| Structure (SMILES) | solubility kinetic |
| --- | --- |
| CCc1ccccc1OC[C@@H](O)CN[C@H]1CCCc2ccccc21 | 36 µg/mL (≈ 111 µM) |
| CCN1CCC(N(Cc2ccc3c(c2)OCO3)C(=O)Nc2cc(Cl)ccc2C(=O)OC)CC1 | 58.5 µg/mL (≈ 123 µM) |
| NCC(=O)Nc1cncc(-c2nn3c(=O)cc(N4CCNCC4)nc3s2)c1 | > 57 µg/mL |
| COc1cnccc1-c1nc(Nc2ccc(F)c(F)c2)c2ccccc2n1 | > 54 µg/mL |
| CCN1CCN(C(=O)CCCn2nc(C)c3c(C)n(-c4ccc(C)cc4)nc3c2=O)CC1 | > 43 µg/mL |
| S=c1[nH]c2ccccc2n1CCc1ccccc1 | 5.04 µg/mL (≈ 19.8 µM) |
| C=Cc1ccc(Cn2c(C(=O)O)c(CNC3CCCCC3)c3ccc(OC)cc32)cc1 | < 1 µg/mL |
| COc1ccc(-c2ccc3ncc(Nc4ccc(C(N)=O)cc4)n3n2)cc1OC | 27.4 µg/mL (≈ 70.4 µM) |
| CCOc1ccc(CNc2ccc3c(c2)ncn3C)cc1 | > 42 µg/mL |
| O=C(CCCN1CCC(n2c(=O)[nH]c3ccccc32)CC1)c1ccc(F)cc1 | 33.3 µg/mL (≈ 87.2 µM) |
| CCOc1ccc(CCNC(=O)c2cc3sccc3n2Cc2cccc(C)c2)cc1OCC | < 1 µg/mL |
| CCCCN(CC)CCCNC(=O)c1ccc2c(c1)N(Cc1ccc(C)cc1)C(=O)c1ccccc1S2 | > 76 µg/mL |
| c1ccc(-c2cc(Nc3nc(-c4ccncc4)nc4ccccc34)n[nH]2)cc1 | < 1 µg/mL |
| O=C1CCCC2=C1C1(CCS(=O)(=O)C1)N=C(Nc1nc3ccccc3o1)N2 (stereo unspecified) | 1.02 µg/mL (≈ 2.65 µM) |
| Cc1ccc(S(=O)(=O)Nc2cccc(C(=O)Nc3nc(-c4ccccc4)cs3)c2Cl)cc1 | < 1 µg/mL |
| O=C(Nc1nc(-c2ccc(F)cc2)cs1)c1ccncc1NS(=O)(=O)c1ccc(F)cc1 | 30.2 µg/mL (≈ 63.9 µM) |
| CCOc1ccc(CCNC(=O)c2cc3sccc3n2CCN2CCN(C)CC2)cc1OCC | > 72 µg/mL |
| COc1cccc(NC(=O)c2cc(-c3ccc(C)c(C)c3)nc3ccccc23)c1 | < 1 µg/mL |
| COc1ccc(NC(=O)c2ccccc2)cc1S(=O)(=O)Nc1ccc(Br)cc1 | < 1 µg/mL |
| O=C1CCCC2=C1C1(CCCC1)N=C(Nc1nc3cc(Cl)ccc3o1)N2 | < 1 µg/mL |
| CCOc1ccc(NC(=O)CSC2=Nc3ccccc3C3=NC(CC(=O)NCc4cccs4)C(=O)N23)cc1 (stereo unspecified) | 23.8 µg/mL (≈ 43.4 µM) |
| COc1ccc(NC(=O)c2cc(-c3ccc[nH]3)n[nH]2)cc1OC | > 31 µg/mL |
| Cc1ccc(-c2cc(C(=O)Nc3ccc(C#N)cc3)c3ccccc3n2)cc1C | < 1 µg/mL |
| CN(C)S(=O)(=O)c1cccc(NC(=O)c2ccc[nH]2)c1 | 13.3 µg/mL (≈ 45.2 µM) |
| COc1ccc(NC(C)=O)cc1S(=O)(=O)Nc1ccc(Br)cc1 | 32.7 µg/mL (≈ 81.9 µM) |
| O=C1CCCC2=C1C1(CCCC1)N=C(Nc1nc3ccccc3o1)N2 | < 1 µg/mL |

| Structure (SMILES) | solubility kinetic |
| --- | --- |
| CC(C)n1cc(-c2ccc3c(c2)N(C)CC3)c2c(NS(=O)(=O)c3ccn(C)n3)ccnc21 | 36.7 µg/mL (≈ 81.5 µM) |
| COc1ccccc1Nc1ccnc(N2CCN(C(=O)c3ccc(F)cc3)CC2)n1 | 10.8 µg/mL (≈ 26.5 µM) |
| O=C(NCCc1ccccc1)C1CCN(c2nc(-c3ccc(Br)cc3)cs2)CC1 | 4.49 µg/mL (≈ 9.54 µM) |
| O=C(Nc1nc(-c2ccccc2)cs1)c1ccccc1-n1cnnn1 | < 1 µg/mL |
| COc1cc(C(=O)Nc2nc(-c3ccccc3)cs2)ccc1NS(=O)(=O)c1ccc(C)cc1 | < 1 µg/mL |
| CN=C1CN=C(c2ccc[nH]2)c2cc(Cl)ccc2N1 | 10.8 µg/mL and 28.3 µg/mL |
| COc1cccc(-c2csc(N3CCC(C(N)=O)CC3)n2)c1 | > 47 µg/mL |
| Oc1ccc(CNc2ccccc2C(F)(F)F)c2cccnc12 | 1.23 µg/mL (≈ 3.85 µM) |
| Cc1cnc(-c2ccccc2C(F)F)nc1NCc1ccc(-c2cccnc2)cc1 | 1.07 µg/mL (≈ 2.66 µM) |
| CCn1c(=NC(=O)c2ccc(S(=O)(=O)N3CCCCC3)cc2)sc2cccc(OC)c21 | < 1 µg/mL |
| O=C1Nc2ccccc2/C1=C/c1ccc[nH]1 | 1.91 µg/mL (≈ 9.09 µM) |
| Cn1nnnc1Sc1ncnc2sc(-c3ccccc3)cc12 | 0.088 µg/mL (≈ 0.27 µM) |
| CCN1C(=O)c2ccccc2S(=O)c2ccc(C(=O)NCc3ccc(OC)cc3)cc21 (stereo unspecified) | 10.4 µg/mL (≈ 23.9 µM) |
| COc1cccc(CNc2ccc(S(=O)(=O)Nc3cccc(-c4ccccc4)c3)cc2)c1O | < 1 µg/mL |
| O=C(c1cnn(-c2cccc(F)c2)c1-n1cccc1)N1CCN(c2ccccc2F)CC1 | 1.11 µg/mL (≈ 2.56 µM) |
| COCCNS(=O)(=O)c1cc(-c2nn3c(C)nnc3c3ccccc23)ccc1C | 29 µg/mL (≈ 70.4 µM) |
| Cc1ccc(S(=O)(=O)Nc2cc(F)ccc2C(=O)Nc2nc(-c3ccccc3)cs2)cc1 | < 1 µg/mL |
| Cc1cc(C)nc(NC(=S)N2CCN(c3ccc(F)cc3F)CC2)c1 | 24.8 µg/mL (≈ 68.4 µM) |
| COc1ccccc1Nc1ccnc(N2CCN(C(=O)c3ccccc3Cl)CC2)n1 | 1.59 µg/mL (≈ 3.75 µM) |
| O=C(NCc1cccc(C(F)(F)F)c1)c1ccc(CN2CCCCC2)cc1 | 46.6 µg/mL (≈ 124 µM) |
| Cc1cccc(C(=O)Nc2ccc(N3CCC(N4CCCCC4)CC3)c(C(=O)O)c2)c1 | > 62 µg/mL |
| CCN(CC)[S+](=O)([O-])c1cc(NC(=O)c2[nH]c(C)c(C(C)=O)c2C)ccc1OC | 18.1 µg/mL (≈ 43 µM) |
| COc1ccc(-c2nc3c(c(SCC(=O)Nc4ccc(C(=O)O)cc4)n2)Cc2ccccc2O3)cc1 | 1.45 µg/mL (≈ 2.9 µM) |
| O=C(N/N=C/c1ccc(Sc2ccccn2)o1)c1ccncc1 | > 48 µg/mL |
| Fc1cc(Nc2nc(-c3ccncc3)nc3ccccc23)ccc1-n1cncn1 | < 1 µg/mL |

Reference: PubChem BioAssay AID1645848
